Measured values reported in ChEMBL document CHEMBL1201862, “PubChem BioAssay data set” (2004).
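Interpolation was linear, between the two tested concentrations surrounding the appropriate level; five concentrations were tested over 48 hours in 96-well plates. GI50 marks 50% less growth.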 Calls of active or inactive are those of the source. Cut-off read from the data, not from the text of the source: active = GI50 up to about 1.1 µM and inactive = higher.

Columns and labels:
Test in all cases: inhibition of tumour cell growth, NCI panel, 48 h
K562 = tested on: K562
NCI-H226 = tested on: NCI-H226
SN12C = tested on: SN12C
NCI/ADR-RES = tested on: NCI/ADR-RES
IGROV-1 = tested on: IGROV-1
A549 = tested on: A549
HL-60 = tested on: HL-60
KM12 = tested on: KM12
HCC 2998 = tested on: HCC 2998
SK-MEL-5 = tested on: SK-MEL-5
TK-10 = tested on: TK-10
RPMI-8226 = tested on: RPMI-8226
786-0 = tested on: 786-0
OVCAR-3 = tested on: OVCAR-3
DU-145 = tested on: DU-145
SNB-75 = tested on: SNB-75
MCF7 = tested on: MCF7
UO-31 = tested on: UO-31
NCI-H23 = tested on: NCI-H23
MOLT-4 = tested on: MOLT-4

Row | SMILES | GI50 (K562) | GI50 (NCI-H226) | GI50 (SN12C) | GI50 (NCI/ADR-RES) | GI50 (IGROV-1) | GI50 (A549) | GI50 (HL-60) | GI50 (KM12) | GI50 (HCC 2998) | GI50 (SK-MEL-5) | GI50 (TK-10) | GI50 (RPMI-8226) | GI50 (786-0) | GI50 (OVCAR-3) | GI50 (DU-145) | GI50 (SNB-75) | GI50 (MCF7) | GI50 (UO-31) | GI50 (NCI-H23) | GI50 (MOLT-4)
1 | CC1NCCC(CC(=O)O)C1CC(=O)O (centres undefined) | > 100 µM (inactive) | > 100 µM (inactive) | > 100 µM (inactive) | > 100 µM (inactive) | > 100 µM (inactive) | > 100 µM (inactive) | > 100 µM (inactive) | > 100 µM (inactive) | > 100 µM (inactive) | > 100 µM (inactive) | > 100 µM (inactive) | > 100 µM (inactive) | > 100 µM (inactive) | > 100 µM (inactive) | > 100 µM (inactive) | 97.9 µM (inactive) | > 100 µM (inactive) | > 100 µM (inactive) | > 100 µM (inactive) | 
2 | O=c1c2c(sc3ccccc13)NCN(CCc1ccccc1)C2 | 19.7 µM (inactive) | 32 µM (inactive) | 41.8 µM (inactive) | 20.7 µM (inactive) | 24.7 µM (inactive) | 49 µM (inactive) | > 100 µM (inactive) | 27.9 µM (inactive) | 22.1 µM (inactive) | 14.8 µM (inactive) |  | 19.9 µM (inactive) | 29.7 µM (inactive) | 73.3 µM (inactive) | 70.5 µM (inactive) | 16.6 µM (inactive) | 56.6 µM (inactive) | 33.7 µM (inactive) | 38.1 µM (inactive) | 31.2 µM (inactive)
3 | O=C1c2ccccc2C(=O)N1c1nc(-c2ccc(Cl)cc2)cc(N2N=C(c3ccc(Br)cc3)CC2c2ccccc2)n1 (centres undefined) | 3.08 µM (inactive) | 5.38 µM (inactive) | 2.9 µM (inactive) | 1.97 µM (inactive) | 2.84 µM (inactive) | 3.24 µM (inactive) | 2.9 µM (inactive) | 9.4 µM (inactive) | 0.301 µM (active) | 1.96 µM (inactive) | 7.98 µM (inactive) | 2.7 µM (inactive) | 4.93 µM (inactive) | 0.863 µM (active) | 3.45 µM (inactive) |  | 1.3 µM (inactive) | 4.81 µM (inactive) | 5.37 µM (inactive) | 2.51 µM (inactive)
4 | CN1C(Cl)=NS(=O)(=O)c2ccccc21 | > 100 µM (inactive) | > 100 µM (inactive) | > 100 µM (inactive) | > 100 µM (inactive) | > 100 µM (inactive) | > 100 µM (inactive) | 35.7 µM (inactive) | > 100 µM (inactive) | > 100 µM (inactive) | > 100 µM (inactive) | > 100 µM (inactive) |  | > 100 µM (inactive) | > 100 µM (inactive) | > 100 µM (inactive) |  | > 100 µM (inactive) | > 100 µM (inactive) | > 100 µM (inactive) | 51.4 µM (inactive)
5 | CCCCCCCC/C=C/CCCCCCCC1CC(O)C(=O)O1 (centres undefined) | 42 µM (inactive) | > 100 µM (inactive) | > 10 µM (inactive) | 54.1 µM (inactive) | 85.3 µM (inactive) | 51.6 µM (inactive) | 35.3 µM (inactive) |  | 61.4 µM (inactive) | 46.1 µM (inactive) | > 100 µM (inactive) | 25.8 µM (inactive) | 42.4 µM (inactive) | 27.9 µM (inactive) | 36.7 µM (inactive) | 35.7 µM (inactive) | 32.4 µM (inactive) | 62.8 µM (inactive) | 44.8 µM (inactive) | 32.9 µM (inactive)
6 | C1CCCCC2(CCCCCCCCC3(CCC1)OCCO3)OCCO2 | > 100 µM (inactive) | > 100 µM (inactive) | > 100 µM (inactive) | > 100 µM (inactive) | > 100 µM (inactive) | > 100 µM (inactive) | > 100 µM (inactive) | > 100 µM (inactive) | > 100 µM (inactive) | > 100 µM (inactive) | > 100 µM (inactive) |  | > 100 µM (inactive) | > 100 µM (inactive) | > 100 µM (inactive) | > 100 µM (inactive) | > 100 µM (inactive) | < 0.01 µM (active) | > 100 µM (inactive) | 
7 | Cc1c(Cl)ccc2c(=O)c3cccc(CC(=O)O)c3oc12 | > 100 µM (inactive) | > 100 µM (inactive) | > 100 µM (inactive) | > 100 µM (inactive) | > 100 µM (inactive) | > 100 µM (inactive) | > 100 µM (inactive) | > 100 µM (inactive) | > 100 µM (inactive) | > 100 µM (inactive) | > 100 µM (inactive) | > 100 µM (inactive) | > 100 µM (inactive) | > 100 µM (inactive) | > 100 µM (inactive) |  | 35.6 µM (inactive) | > 100 µM (inactive) | > 100 µM (inactive) | > 100 µM (inactive)
8 | c1ccc([P+](CCCCCC[P+](c2ccccc2)(c2ccccc2)c2ccccc2)(c2ccccc2)c2ccccc2)cc1 | 11.7 µM (inactive) | 8.87 µM (inactive) | 15.3 µM (inactive) | > 100 µM (inactive) | 3.84 µM (inactive) | 7.41 µM (inactive) | 10.6 µM (inactive) | 3.85 µM (inactive) | 46.7 µM (inactive) |  | 8.36 µM (inactive) |  | 24 µM (inactive) | 19.8 µM (inactive) | 11.9 µM (inactive) | 5.2 µM (inactive) | 5.94 µM (inactive) | > 100 µM (inactive) | 4.71 µM (inactive) | 22.9 µM (inactive)
